# Literature values in patent publication US20180271924A1, “COMPOUND AND METHOD FOR REDUCING INFLAMMATION, PAIN, ALLERGY, FLU AND COLD SYMPTOMS” (priority 2018, published 2018).
# Where two headings read alike, the source gives them in different places.
# Legend:
# [1] = test system: dividing and non-dividing cells
# [2] = 20.0 mg/kg
# [3] = 0.5 mg/kg
# [4] = 50 mg THC daily
# [5] = for pain relief, THC versus codeine: 36 cancer pain patients, 20 mg THC, 120 mg codeine
# [6] = 5 mg THC; for analgesic effect: 50 mg codeine
# [7] = human studies
# [8] = extract 100, 300, 500 mg/kg
# [9] = not given; remark: listed apart in the source
# [10] = not given; remark: listed apart in the source
# [11] = mitragynine 2 mg/mL
# [12] = anesthetized rats; reversed by naloxone
# [13] = extract 100, 300, 500 mg/kg; diazepam 0.1-1 mg/kg; caffeine 10, 30, 100 mg/kg
# [14] = extract 100, 300, 500 mg/kg; diazepam 0.1-1 mg/kg
# [15] = test system: mu-, delta- and kappa-opioid binding sites
# [16] = extract 100, 300, 500 mg/kg; remark: listed apart in the source
# [17] = extract 300, 500 mg/kg
# [18] = DPPH
# [19] = not given; remark: listed apart in the source
# [20] = not given; remark: listed apart in the source
# [21] = molecular target: T1, kappa receptors (Rattus norvegicus, UniProt P34975); conditions: rat CNS membranes
# T1 construct: membranes prepared from rat central nervous system; from tissue; host or cells: rat central nervous system membranes
# T1 sequence (P34975 whole entry): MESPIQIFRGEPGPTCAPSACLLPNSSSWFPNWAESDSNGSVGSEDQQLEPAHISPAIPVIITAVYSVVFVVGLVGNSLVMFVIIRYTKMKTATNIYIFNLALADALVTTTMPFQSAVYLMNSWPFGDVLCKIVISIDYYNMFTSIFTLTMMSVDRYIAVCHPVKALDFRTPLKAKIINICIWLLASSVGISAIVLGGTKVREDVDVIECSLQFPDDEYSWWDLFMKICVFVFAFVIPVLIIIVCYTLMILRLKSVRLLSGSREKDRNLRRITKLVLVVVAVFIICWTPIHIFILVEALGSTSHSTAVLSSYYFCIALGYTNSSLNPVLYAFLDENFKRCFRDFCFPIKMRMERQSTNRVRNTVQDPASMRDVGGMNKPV
# [22] = molecular target: T2, delta opioid receptor (Rattus norvegicus, UniProt P33533); conditions: rat CNS membranes
# T2 construct: membranes prepared from rat central nervous system; from tissue; host or cells: rat central nervous system membranes
# T2 sequence (P33533 whole entry): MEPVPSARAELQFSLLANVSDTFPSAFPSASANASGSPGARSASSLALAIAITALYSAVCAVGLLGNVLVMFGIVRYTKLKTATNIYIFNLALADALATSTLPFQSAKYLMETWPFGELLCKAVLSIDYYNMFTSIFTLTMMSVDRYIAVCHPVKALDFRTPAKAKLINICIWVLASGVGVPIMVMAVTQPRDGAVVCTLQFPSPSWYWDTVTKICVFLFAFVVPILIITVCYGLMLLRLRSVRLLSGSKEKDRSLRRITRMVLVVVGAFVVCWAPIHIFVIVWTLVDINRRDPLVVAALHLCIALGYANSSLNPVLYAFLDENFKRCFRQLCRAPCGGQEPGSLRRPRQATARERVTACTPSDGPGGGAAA
# [23] = test system: opioid receptors
# [24] = molecular target: T3, mu receptors (Rattus norvegicus, UniProt P33535); conditions: rat CNS membranes
# T3 construct: membranes prepared from rat central nervous system; from tissue; host or cells: rat central nervous system membranes
# T3 sequence (P33535 whole entry): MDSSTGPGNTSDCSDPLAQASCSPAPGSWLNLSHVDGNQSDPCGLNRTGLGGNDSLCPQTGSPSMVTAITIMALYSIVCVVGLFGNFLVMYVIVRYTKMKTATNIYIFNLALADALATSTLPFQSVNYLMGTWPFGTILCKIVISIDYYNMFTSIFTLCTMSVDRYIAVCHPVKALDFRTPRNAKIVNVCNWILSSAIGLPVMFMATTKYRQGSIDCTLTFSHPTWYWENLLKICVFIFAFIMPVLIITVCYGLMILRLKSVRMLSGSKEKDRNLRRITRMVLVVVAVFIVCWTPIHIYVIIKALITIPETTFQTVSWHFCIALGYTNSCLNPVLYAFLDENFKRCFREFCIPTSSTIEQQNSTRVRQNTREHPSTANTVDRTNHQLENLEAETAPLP
# [25] = molecular target: ORL1-binding sites (Cavia porcellus, UniProt P47748)
# Sequence of ORL1-binding sites (P47748 whole entry): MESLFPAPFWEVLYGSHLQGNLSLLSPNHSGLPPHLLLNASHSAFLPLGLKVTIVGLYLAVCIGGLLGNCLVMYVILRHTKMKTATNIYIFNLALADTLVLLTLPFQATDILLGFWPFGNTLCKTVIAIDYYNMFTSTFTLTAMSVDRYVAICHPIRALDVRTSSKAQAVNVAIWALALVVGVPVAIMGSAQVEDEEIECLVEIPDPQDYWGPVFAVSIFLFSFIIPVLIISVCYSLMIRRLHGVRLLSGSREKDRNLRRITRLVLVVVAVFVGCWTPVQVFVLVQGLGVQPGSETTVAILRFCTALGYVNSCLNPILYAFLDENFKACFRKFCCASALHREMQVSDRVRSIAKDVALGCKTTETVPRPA
# [26] = molecular target: T4, ORL1 receptors (Cavia porcellus, UniProt P47748); conditions: guinea pig small intestine
# T4 construct: functional ORL1 receptors in the guinea pig small intestine; from tissue; host or cells: guinea pig small intestine
# T4 sequence (P47748 whole entry): as above
# [27] = test system: mu-opioid binding sites; conditions: corresponds to K value
# [28] = not given; remark: listed apart in the source
# [29] = extract 100-500 mg/kg; diclofenac 10-100 mg/kg; morphine 1-10 mg/kg
# [30] = extract 100, 300, 500 mg/kg; diclofenac 10, 30, 100 mg/kg; 20 minutes observation
# [31] = subcutaneous
# [32] = for time of peak analgesic effect: pseudoakuammigine 5.0 mg/kg p.o., morphine 1.0 mg/kg s.c., indomethacin 2.5 mg/kg p.o.
# [33] = not given; remark: listed apart in the source
# [34] = 200 mg/kg
# [35] = test system: mast cells; conditions: induced by compound 48/80
# [36] = mouse, in vivo
smiles,measurement,setting,value
CN1CC[C@]2(c3cccc4c3N[C@@H]3N(C)CC[C@]43[C@@]34CCN(C)[C@@H]3Nc3ccccc34)c3ccccc3N[C@H]12 [hodgkinsine],cytotoxicity,[1],low cytotoxicity
same,"analgesic activity, hot-plate",[2],comparable with 6.0 mg/kg of morphine
same,"analgesic activity, tail-flick",[3],comparable to that of 6.0 mg/kg of morphine
"CCCCCc1cc(O)c2c(c1)OC(C)(C)[C@@H]1CCC(C)=C[C@@H]21 [THC, delta-9-tetrahydrocannabinol]",morphine requirement,[4],morphine requirement was significantly reduced (P<0.01)
same,pain relief versus placebo,"[5]; 10 cancer pain patients, at doses of 15 and 20 mg",pain relief significantly superior to placebo
same,"pain relief, THC versus codeine",[5],equally effective
same,effect on spasticity,[6],significant effect on spasticity
same,analgesic effect,[6],analgesic effect in comparison with placebo
same,analgesia versus placebo,[7],significantly superior to placebo
same,time of peak analgesia,[7],around 5 hours
CN1[C@@H]2CC[C@H]1C[C@@H](OC(=O)C(CO)c1ccccc1)C2 (stereo partly drawn) [Atropine],protection against acetylcholine-induced bronchoconstriction and cough,[8],significantly (P<0.05-0.0001) protected
"CCCCCc1cc(O)c2c(c1)OC(C)(C)c1ccc(C)cc1-2 [CNB, cannabinol]",inhibition of PBQ-induced writhing,doses higher than 10 mg/kg,40%
CC(=O)Oc1cc(O[C@H](C)CCCc2ccccc2)cc2c1[C@@H]1C[C@H](O)CC[C@H]1[C@H](C)N2 [Levonantradol],pain relief versus placebo,"[9]; 1.5, 2, 2.5, 3 mg intramuscular, 56 patients",all doses were significantly superior to placebo
same,patients reporting at least one side-effect,[9]; in vivo,57%
same,analgesia versus placebo,[7],superior to placebo
same,sedation,[7],almost half the patients reported sedation
CC[C@@H]1CN2CCc3c([nH]c4cccc(OC)c34)[C@@H]2C[C@@H]1/C(=C\OC)C(=O)OC [mitragynine],toxicity,[10]; dose levels of 800-900 mg/kg in rodents,no toxicity
same,lethality,"[10]; oral 200 mg/kg, rats",lethal effects
same,"nerve conduction, compound nerve action potential",[11],blocked the nerve conduction
same,gastric acid secretion,[12],inhibition of 2-deoxy-D-glucose-stimulated gastric acid secretion in a dose dependent manner
CCCCCc1cc(O)cc(O)c1 [olivetol],dose of maximal effect in the PBQ test,oral,about 100 mg/kg
CN1C(=O)CN=C(c2ccccc2)c2cc(Cl)ccc21 [diazepam],effect in open arm test,[13],dose dependently and significantly increased the percentage of open arm entries
same,frequency of central zone entries,[14],dose dependently increased the frequency of central zone entries
COC(=O)C1=CO[C@@H](C)[C@@H]2CN3CCc4c([nH]c5ccccc45)[C@H]3C[C@H]12 [akuammigine],opioid binding (words),[15],no opioid binding
same,opioid binding (words),[15]; listed as Akuammigine,no affinity for any of the opioid binding sites
Cn1c(=O)c2c(ncn2C)n(C)c1=O [caffeine],effect in open arm test,[13],anxiogenic effect
COc1ccc2c3c1O[C@H]1[C@@H](O)CC[C@H]4[C@@H](C2)N(C)CC[C@@]341 [dihydrocodeine],cough count,[16],dose-dependently reduced (P<0.05) cough count
same,latency of cough,[16],increased significantly (P<0.01) the latency of cough
COc1ccc(CN(CCN(C)C)c2ccccn2)cc1 [mepyramine],histamine-induced bronchoconstriction and cough,[17],reduced significantly (P<0.01-0.0001) bronchoconstriction and cough induced by histamine
O=C1O[C@H]([C@@H](O)CO)C(O)=C1O [ascorbic acid],EC50 (free radical scavenging),[18],1.07 µg/mL
"COc1ccc2cc3[n+](cc2c1OC)CCc1cc2c(cc1-3)OCO2 [Umbellatine, umbellatine]","analgesic activity, tail-flick",[19]; 100 mg/kg,clearly active
same,"analgesic activity, tail-flick",[19]; 200 and 300 mg/kg,comparable in efficacy to those of 6 mg/kg of morphine
same,"analgesic activity, hot plate",[20]; 10-300 mg/kg,dose-dependently active
same,"analgesic activity, hot plate",[20]; 200 and 300 mg/kg,comparable in efficacy to that obtained with 6 mg/kg of morphine
C/C=C1/CN2CC[C@@]34c5cc(O)ccc5N(C)[C@]35OC[C@@]4(C(=O)OC)[C@H]1C[C@H]25 [akuammine],affinity for kappa receptors,[21],micromolecular affinities
same,affinity for delta opioid receptor relative to kappa and mu,[22],ten times lower
same,character at opioid receptors,[23],opioid antagonist
same,opioid binding (words),[15],low affinity
same,affinity for mu receptors,[24],micromolecular affinities
same,affinity for ORL1-binding sites (words),[25],neither akuammine nor any of the other alkaloids showed appreciable affinity
same,affinity for ORL1-binding sites (words),[25]; listed as Akuammine,little affinity
same,antagonism of nociceptin at functional ORL1 receptors,[26],does not antagonize nociceptin
same,affinity,[27],2.1 mM⁻¹
same,solubility in water,[28],slightly soluble in water
O=C(O)Cc1ccccc1Nc1c(Cl)cccc1Cl [diclofenac],tail withdrawal latency / antinociceptive effect,[29],increased tail withdrawal latencies
same,abdominal writhes,[30],suppressed the writhing
CCCCCc1cc(O)c2c(c1)OC(C)(C)[C@@H]1CCC(C)=C[C@@H]21 [Delta 1-THC],dose of maximal effect in the PBQ test,oral,10 mg/kg
CC[C@@H]1CN2CC[C@@]3(O)C(=Nc4cccc(OC)c43)[C@@H]2C[C@@H]1/C(=C\OC)C(=O)OC [7-hydroxymitragynine],gastrointestinal transit,[31],inhibition of the gastrointestinal transit
"COc1ccc2c(c1)c(CC(=O)O)c(C)n2C(=O)c1ccc(Cl)cc1 [indomethacin, reference compound]",ED50 (analgesic),[32]; on molar basis,6.3 muM
same,time of peak analgesic effect,[32],60 min
C/C=C1/CN2CC[C@@]34c5ccccc5N(C)[C@]35OC[C@@]4(C(=O)OC)[C@H]1C[C@H]25 [pseudoakuammigine],effect on electrically-induced contractions,[23]; antagonised by naloxone,inhibited the electrically-induced contractions
same,opioid binding (words),[15],low affinity
same,opioid binding (words),[15]; listed as Pseudoakuammigine,bound equally to both mu and delta-opioid binding sites
same,ED50 (analgesic),[32]; on molar basis,10 muM
same,times less potent than indomethacin as an analgesic,[32]; on molar basis,1.6 times
same,times less potent than morphine as an analgesic,[32]; on molar basis,3.5 times
same,time of peak analgesic effect,[32],180 min
same,maximal inhibitory effect (anti-inflammatory),"[33]; 50 mg kg, p.o.",44%
same,activity on carrageenan-induced paw oedema,"[33]; 1.0, 5.0, 50 mg/kg p.o.",dose-dependent inhibitory activity
same,affinity for ORL1-binding sites (words),[25],little affinity
"CN1CC[C@]23c4c5ccc(O)c4O[C@H]2[C@@H](O)C=C[C@H]3[C@H]1C5 [morphine, reference compound]",tail withdrawal latency / antinociceptive effect,[29],significant (P<0.0001) dose dependent increase in tail withdrawal latencies
same,ED50 (analgesic),[32]; on molar basis,2.9 muM
same,time of peak analgesic effect,[32],30 min
CC(=O)Oc1ccccc1C(=O)O [aspirin],mean percentage antipyrexia,[34],29.0%
"C=C(C)[C@@H]1CCC(C)=C[C@H]1c1c(O)cc(CCCCC)cc1O [CBD, cannabidiol]",effectiveness at inhibition of PBQ-induced writhing,"oral, 100 mg/kg",most effective
COc1ccc2c3c1O[C@H]1[C@@H](O)C=C[C@H]4[C@@H](C2)N(C)CC[C@@]341 [codeine],"pain relief, THC versus codeine",[5],equally effective
same,analgesic effect,[6],analgesic effect in comparison with placebo
O=C(O)c1cc(=O)c2c(OCC(O)COc3cccc4oc(C(=O)O)cc(=O)c34)cccc2o1 [sodium cromoglicate],mast cell degranulation,[35],reduce significantly (P<0.01) mast cell degranulation
same,tracheal phenol red secretion (muco-suppressant),[36],caused a reduction (P<0.01) in tracheal phenol red secretion
